According to patent US12295970B2, “Imidazoquinoline compounds and prodrugs thereof” (UNIVERSITY OF KANSAS, priority 2019, dated 2025):

Assays:
Format in all cases: cell-based
hTLR7 = target: T1, hTLR7 (Homo sapiens, UniProt Q9NYK1); assay: SEAP reporter assay for hTLR-7 activity (HEK-Blue hTLR7 cells); conditions: ± SD; hTLR7 transfected HEK-Blue cells, Null subtracted; three independent measurements; 12 hours; read-out: EC50 TLR7
T1 construct: host or cells: HEK293 (HEK-Blue hTLR7)
T1 sequence (Q9NYK1 27-1049): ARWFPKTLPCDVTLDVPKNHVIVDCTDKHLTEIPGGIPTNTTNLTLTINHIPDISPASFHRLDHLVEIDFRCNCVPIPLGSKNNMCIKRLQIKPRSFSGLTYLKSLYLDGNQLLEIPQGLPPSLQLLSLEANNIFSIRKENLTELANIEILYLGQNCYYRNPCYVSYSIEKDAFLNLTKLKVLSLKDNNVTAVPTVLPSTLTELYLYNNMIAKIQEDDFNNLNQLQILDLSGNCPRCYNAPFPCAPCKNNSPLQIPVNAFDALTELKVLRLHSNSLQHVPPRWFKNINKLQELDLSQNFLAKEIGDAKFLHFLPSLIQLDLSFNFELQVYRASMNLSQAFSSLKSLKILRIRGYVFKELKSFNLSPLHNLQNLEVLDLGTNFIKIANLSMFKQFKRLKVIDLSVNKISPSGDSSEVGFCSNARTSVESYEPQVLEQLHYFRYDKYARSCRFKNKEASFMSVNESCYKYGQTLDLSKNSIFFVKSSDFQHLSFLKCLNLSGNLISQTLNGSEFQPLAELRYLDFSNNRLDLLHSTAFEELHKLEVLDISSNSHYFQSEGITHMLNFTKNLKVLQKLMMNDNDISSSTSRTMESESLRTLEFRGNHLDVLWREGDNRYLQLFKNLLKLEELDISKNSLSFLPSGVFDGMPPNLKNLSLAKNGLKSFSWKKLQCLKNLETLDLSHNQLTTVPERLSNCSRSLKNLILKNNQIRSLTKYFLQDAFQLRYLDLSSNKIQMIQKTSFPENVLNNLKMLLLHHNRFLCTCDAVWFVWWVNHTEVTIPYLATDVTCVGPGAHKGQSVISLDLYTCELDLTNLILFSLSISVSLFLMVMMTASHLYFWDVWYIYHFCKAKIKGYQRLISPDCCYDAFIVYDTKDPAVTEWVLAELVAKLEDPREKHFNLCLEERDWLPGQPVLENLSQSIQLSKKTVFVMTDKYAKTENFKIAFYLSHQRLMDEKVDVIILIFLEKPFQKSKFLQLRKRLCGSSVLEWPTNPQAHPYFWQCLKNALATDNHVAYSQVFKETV
Protocol: (§1) TLR activation induces NF-κB production and subsequent SEAP secretion, which is measured using HEK-Detection media (InvivoGen) containing a colorimetric substrate for SEAP (UV-Vis, 637 nm).
(§2) The experiments followed manufacturer protocol as follows: SEAP levels were measured via absorbance at 637 nm using HEK-Blue Detection cell culture medium (InvivoGen), which contains a SEAP-specific colorimetric substrate. Compound stock solutions were first diluted in sterile DMSO at a concentration of 10 mM. Lower concentrations were prepared by serial dilution of the initial 10 mM stock samples into sterile DMSO and these solutions (22 μL) were subsequently diluted into sterile H2O (198 μL) using a BioTek Precision XS pipetting system. HEK-Blue hTLR7, HEK-Blue hTLR8, Null 1−k, and Null 1 cell suspensions in sterile HEK-Blue Detection medium were prepared at a density of 220,000 cells per mL. Clear bottom, 96-well tissue culture treated plates (Corning) were seeded with hTLR7 and Null 1−k or hTLR8 and Null 1 cell suspensions (180 μL/well), after which 20 μL of the various sample concentrations in 10% v/v DMSO/H2O were added (20 μL) in quadruplicate wells to yield the desired testing concentration in 1% v/v DMSO cell suspension. Plates were incubated at 37° C. and 5% CO2 in the dark. Absorbance measurements were taken at 637 nm at 12 hours, 4 replicates per concentration point, per cell line (hTLR7, hTLR8, Null 1−k, Null 1). Three independent measurements on different days were performed for each analog.
(§3) Corresponding well absorbance values for each concentration tested were averaged with respect to days tested, and the average relative NF-κB induction (UV-Vis, 637 nm) of the null cell lines (Null 1-k or Null 1) were subtracted from the respective average TLR expressing cell line (hTLR7 or hTLR8) absorbance averages. […] The three independent, normalized averages for each analog were then pooled, and the data was fit using the Hill-Slope model (GraphPad Prism v7.0) using the non-linear fit from the [Agonist] vs. response—Variable Slope (four parameters) with a hill slope constrained to less than 3.

[1] = tested on: canine peripheral blood mononuclear cells (cPBMCs); assay: Cytokine production in canine PBMCs by ELISA (Example 2); conditions: ± SD, 20 μM, 29 hours, ELISA, triplicate
Protocol: The imidazoquinolines were further screened for cytokine production in canine peripheral blood mononuclear cells (cPBMCs). […] TNFα and IL-12 were chosen as they are typically seen in a Th-1 cytokine response.
Peripheral blood from a healthy canine donor was obtained with appropriate informed consent of the owner and under approved institutional guidelines. Blood (8 mL per tube) was drawn via sterile venipuncture into a BD Vacutainer cell preparation tube containing sodium heparin (BD Biosciences). PBMCs were isolated within one hour following procurement by density gradient centrifugation according to the manufacturer protocol and resuspended to 2.22×10^6 cells/mL in sterile RPMI 1640 medium with L-glutamine (Gibco) supplemented with 100 U/mL penicillin, 100 μg/mL streptomycin (Corning) and 10% (v/v) heat-inactivated Fetalgro (RMBIO). Corning 3917, 96-well tissue culture treated plates were seeded with the PBMC suspension (180 μL/well), 20 μL of the serially diluted TLR agonists were added in triplicate to yield the desired concentrations in a 1% (v/v) DMSO cell suspension. Cells were incubated at 37° C. in 5% CO2 for 9 hours (FIGS. 3A-3D) or 29 hours (Table 2) after which supernatants were removed and frozen at −80° C. Cytokine secretion levels were measured by ELISA (Duoset, R&D Systems) according to the manufacturer protocol. Samples and standards (n=3) were thawed and plated onto a Maxisorp flat-bottom, 384-well plate (Thermo Scientific) using a BioTek Precision XS pipetting system. Cytokine concentrations were determined by a hyperbolic or four-parameter logistic non-linear regression of the recombinant standards and subsequent interpolation using Graphpad Prism 7.0.

hTLR8 = target: T2, hTLR8 (Homo sapiens, UniProt Q9NR97); assay: SEAP reporter assay for hTLR-8 activity (HEK-Blue hTLR8 cells); conditions: ± SD; hTLR8 transfected HEK-Blue cells, Null subtracted; three independent measurements; 12 hours; >100 = no activity observed at 100 μM; read-out: EC50 TLR8
T2 construct: host or cells: HEK293 (HEK-Blue hTLR8)
T2 sequence (Q9NR97 27-1041): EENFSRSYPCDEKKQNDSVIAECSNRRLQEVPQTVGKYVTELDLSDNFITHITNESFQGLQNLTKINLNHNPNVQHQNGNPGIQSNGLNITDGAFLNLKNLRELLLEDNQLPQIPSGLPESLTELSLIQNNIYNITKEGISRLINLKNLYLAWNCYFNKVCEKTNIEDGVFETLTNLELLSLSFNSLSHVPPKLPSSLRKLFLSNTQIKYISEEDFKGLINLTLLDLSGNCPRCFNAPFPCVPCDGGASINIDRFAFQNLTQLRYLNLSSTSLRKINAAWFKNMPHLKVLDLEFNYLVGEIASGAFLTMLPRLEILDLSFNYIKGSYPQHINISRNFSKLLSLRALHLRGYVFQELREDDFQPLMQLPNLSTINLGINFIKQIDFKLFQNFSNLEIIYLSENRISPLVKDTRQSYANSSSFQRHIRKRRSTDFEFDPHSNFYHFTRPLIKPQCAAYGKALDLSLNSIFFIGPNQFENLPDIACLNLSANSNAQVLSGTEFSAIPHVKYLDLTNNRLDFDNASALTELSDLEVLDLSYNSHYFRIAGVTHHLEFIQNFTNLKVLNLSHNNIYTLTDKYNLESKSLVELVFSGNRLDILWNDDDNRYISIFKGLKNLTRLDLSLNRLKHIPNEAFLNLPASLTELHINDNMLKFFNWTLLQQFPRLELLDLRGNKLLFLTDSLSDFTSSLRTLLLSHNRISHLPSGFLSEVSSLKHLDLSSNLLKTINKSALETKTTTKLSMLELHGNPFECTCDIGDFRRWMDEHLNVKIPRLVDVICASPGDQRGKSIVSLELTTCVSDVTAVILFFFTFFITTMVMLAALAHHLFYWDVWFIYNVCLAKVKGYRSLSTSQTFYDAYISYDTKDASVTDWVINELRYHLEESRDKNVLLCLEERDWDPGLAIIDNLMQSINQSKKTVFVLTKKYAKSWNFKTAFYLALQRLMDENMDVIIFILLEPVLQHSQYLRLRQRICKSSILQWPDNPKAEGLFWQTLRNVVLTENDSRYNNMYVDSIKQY
Protocol: as §1, §2, §3

human TLR7 (hTLR7) = target: T3, human TLR7 (hTLR7) (Homo sapiens, UniProt Q9NYK1); assay: In vitro TLR7 activity assay (HEK-Blue hTLR7, QUANTI-Blue, Example 3); conditions: 16 h incubation; Null 1-k subtracted
T3 construct: host or cells: HEK-293 (HEK-Blue hTLR7)
T3 sequence (Q9NYK1 27-1049): T1 sequence (Q9NYK1 27-1049)
Protocol: TLR agonist activity was measured in a dose-response study using reporter cell lines expressing the human TLR7 (hTLR7). […] The hTLR7 activity of R848-Toco, the formulation and its components were assessed using HEK-293 cells co-transfected with the hTLR7 gene and an inducible SEAP reporter gene along with the corresponding null control line (HEK-Blue™ hTLR7 and Null-1k cells, Invivogen). Cells were maintained in DMEM media with selective antibiotics according to the manufacturer protocol.^26 HEK-Blue™ cells were seeded into 96 well plates at a density of 220,000 cells/mL with 180 μL/well of culture medium. Stock solutions in DMSO were first serially diluted to seven concentrations (DMSO solutions further diluted into H2O). Each well was stimulated with 20 μL of agonists or agonist-free controls (equivalent concentration of HA-Toco, D-α-Tocopherol succinate, PBS or […] DMSO) at the determined final concentrations in 5 replicates. After 16 h of incubation at 37° C. in a 5% CO2 atmosphere, 20 μL of the supernatant from each well was sampled and spiked into 180 μL of QUANTI-Blue™ solution followed by incubation for 1 h at 37° C. Relative hTLR7 activity was then analyzed by UV-Vis at 637 nm using a microplate UV reader (SpectraMAX GeminiXS, Molecular Devices, San Jose, CA, USA). For each compound and concentration, a corresponding sample was applied to the HEK-Blue™ Null-1k cell line. The TLR7 agonist activity was determined after averaging across hTLR7 replications and subtracting the averaged Null response.
Activation levels were calculated as the difference between the average readings of the hTLR7 cell line and the Null 1-k cell line, to account for non-hTLR7 related induction of NF-κB. […] Therefore, this study confirmed that R848-Toco, formulated with HA-Toco as an emulsion, maintained its TLR agonist activity. […]

| EC50 (hTLR7) [µM] | EC50 (hTLR8) [µM] | Compound | Cytokine IFNg [1] [pg/mL] | Cytokine IL-2 [1] [pg/mL] | Cytokine IL-6 [1] [pg/mL] | Cytokine IL-10 [1] [pg/mL] | Cytokine IL-12 [1] [pg/mL] | Cytokine TNFa [1] [pg/mL] | hTLR7 activation (NF-κB, in words) (human TLR7 (hTLR7)) |
| --- | --- | --- | --- | --- | --- | --- | --- | --- | --- |
| 6.8 ± 0.7 | > 100 | CCOCc1nc2c(N)nc3cc(C#N)ccc3c2n1CC(C)C [Compound 11, 4-Amino-7-carbonitrile-2-(ethoxymethyl)-1-(2-methylpropyl)-1H-imidazo[4,5-c]quinoline] | 4 ± 3 | 57 ± 14 | 71 ± 20 | 6 ± 2 | 190 ± 62 | 7 ± 1 |  |
| 0.79 ± 0.23 | 3.9 ± 0.2 | CCCCc1nc2c(N)nc3cc(C#N)ccc3c2n1CC(C)(C)O [Compound 12, 4-Amino-2-butyl-7-carbonitrile-1-(2-hydroxy-2-methylpropyl)-1H-imidazo[4,5-c]quinoline] | 12 ± 4 | 45 ± 22 | 290 ± 77 | 14 ± 3 | 418 ± 72 | 44 ± 10 |  |
| 3.5 ± 0.7 | 27 ± 6 | CCOCc1nc2c(N)nc3cc(C#N)ccc3c2n1CC(C)(C)O [Compound 13, 4-Amino-7-carbonitrile-2-(ethoxymethyl)-1-(2-hydroxy-2-methylpropyl)-1H-imidazo[4,5-c]quinoline] | 0.2 ± 0.4 | 46 ± 42 | 214 ± 69 | 6 ± 3 | 13 ± 3 | 80 ± 20 |  |
|  |  | Cc1c(C)c2c(c(C)c1OC(=O)CCC(=O)O)CC[C@@](C)(CCC[C@H](C)CCC[C@H](C)CCCC(C)C)O2 [Toco-succinate, (+)-α-tocopherol succinate] |  |  |  |  |  |  | did not induce any significant activation |
